ChEMBL document CHEMBL1152691, “Design and synthesis of novel 2',3'-dideoxy-4'-selenonucleosides as potential antiviral agents” (Bioorg Med Chem, 2008)
Calls of active or inactive are those of the source. No cut-off for these calls is given here.

Tested on: Human immunodeficiency virus
Assay: Antiviral activity against HIV
Assay type: functional, organism-based

Row | Compound | Activity
1 | Cc1cn([C@H]2CC[C@@H](CO)[Se]2)c(=O)[nH]c1=O | inactive
2 | O=c1ccn([C@H]2CC[C@@H](CO)[Se]2)c(=O)[nH]1 | inactive
3 | Nc1ccn([C@H]2CC[C@@H](CO)[Se]2)c(=O)n1 | inactive
